Test results as given in the supplement of paper PMC10307832.

Key:
Test in all cases: relative viability (nuclei count vs DMSO), 5 days (fraction); higher = more cells survive
[1] = compound: O=C(O)C(Cc1ccccc1[N+](=O)[O-])=NNc1nc(-c2ccc(Cl)c(Cl)c2)cs1 (mixture of isomers) [4EGI-1] + N=C(N)NC(=N)NCCc1ccccc1 [Phenformin] (partner 250 µM)
Procedure, shortened: (§1)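 Relative viability equals treated-well nuclei counts divided by vehicle-well nuclei counts. Counts came from 4× images of lung cancer cell lines grown in 1536-well plates for 5 days after pin-tool dosing on the day after seeding. Dosing used one drug alone or a fixed anchor-drug dose plus five library-drug doses (not always all listed) in √10 steps, and values are medians of duplicate plates.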

[2] = compound: CN1CCN(CC1)C2=CC(=C(C=C2)NC3=NC=C4C(=N3)N(C5=CC=CC=C5C(=O)N4C)C)OC [XMD8-85] + Nc1nc2[nH]cc(CCc3ccc(C(=O)N[C@@H](CCC(=O)O)C(=O)O)cc3)c2c(=O)[nH]1 [Pemetrexed] (partner 0.2 µM)
Procedure, shortened: as §1

[3] = compound: CN1CCN(CC1)C2=CC(=C(C=C2)NC3=NC=C4C(=N3)N(C5=CC=CC=C5C(=O)N4C)C)OC [XMD8-85] + CC1(C)CCC(c2ccc(Cl)cc2)=C(CN2CCN(c3ccc(C(=O)NS(=O)(=O)c4ccc(N[C@H](CCN5CCOCC5)CSc5ccccc5)c(S(=O)(=O)C(F)(F)F)c4)cc3)CC2)C1 [Navitoclax] (partner 0.5 µM)
Procedure, shortened: as §1

[4] = compound: CN1CCN(CC1)C2=CC(=C(C=C2)NC3=NC=C4C(=N3)N(C5=CC=CC=C5C(=O)N4C)C)OC [XMD8-85] + CC(C)C[C@H](NC(=O)[C@H](Cc1ccccc1)NC(=O)c1cnccn1)B(O)O [Bortezomib] (partner 0.002 µM)
Procedure, shortened: as §1

Cell Line | relative viability ([1]; first compound 0.5 µM) | relative viability ([1]; first compound 5 µM) | relative viability ([1]; first compound 15.81 µM) | relative viability ([1]; first compound 50 µM) | relative viability ([2]; first compound 0.08 µM) | relative viability ([2]; first compound 0.253 µM) | relative viability ([2]; first compound 0.8 µM) | relative viability ([2]; first compound 2.53 µM) | relative viability ([2]; first compound 8 µM) | relative viability ([1]; first compound 1.581 µM) | relative viability ([3]; first compound 0.08 µM) | relative viability ([3]; first compound 0.253 µM) | relative viability ([3]; first compound 2.53 µM) | relative viability ([3]; first compound 8 µM) | relative viability ([4]; first compound 0.08 µM) | relative viability ([4]; first compound 0.253 µM) | relative viability ([4]; first compound 0.8 µM) | relative viability ([4]; first compound 2.53 µM) | relative viability ([4]; first compound 8 µM) | relative viability ([3]; first compound 0.8 µM)
SW 900 | 0.812 | 0.807 | 0.527 | 0.322 | 0.46 | 0.505 | 0.506 | 0.477 | 0.282 |  |  |  |  |  |  |  |  |  |  | 
NCI-H727 | 0.648 | 0.511 | 0.572 | 0.332 |  |  |  |  |  | 0.518 | 0.466 | 0.365 | 0.379 | 0.247 | 0.64 | 0.727 | 1.34 | 1.3 | 0.452 | 
NCI-H596 | 0.859 | 1.01 | 0.961 | 0.705 | 0.477 |  | 0.457 | 0.465 | 0.368 | 0.732 | 1.04 | 1.13 | 0.68 | 0.377 | 0.838 | 0.903 | 1.22 | 1.09 | 0.899 | 1.07
NCI-H2347 | 0.614 | 0.379 | 0.363 | 0.344 | 0.393 | 0.529 | 0.427 | 0.406 | 0.431 |  | 0.757 | 0.852 | 0.809 | 0.63 | 1.2 | 1.09 | 0.824 | 0.921 | 0.407 | 
NCI-H2126 | 0.553 | 0.569 | 0.488 | 0.463 | 0.705 | 0.758 | 0.693 | 0.707 | 0.623 |  | 0.946 | 0.935 | 0.897 | 0.839 | 1.04 | 1.13 | 1.18 | 1.15 | 1.12 | 0.899
HCC-78 | 0.812 | 0.741 | 0.668 | 0.658 | 0.915 | 0.892 | 0.906 | 0.95 | 0.855 |  | 0.891 | 0.882 | 0.682 | 0.58 | 0.639 | 0.455 | 0.375 | 0.495 | 0.316 | 0.6
NCI-H1395 | 0.455 | 0.508 | 0.399 | 0.34 | 0.768 | 0.744 | 0.854 | 0.976 | 0.594 | 0.362 | 1.09 | 1.18 | 1.03 | 1.02 |  |  |  |  |  | 1.3
NCI-H522 | 0.641 | 0.676 | 0.626 | 0.551 | 0.762 | 0.916 | 1.01 | 1.08 | 0.825 | 0.548 |  |  |  |  |  |  |  |  |  | 
SK-MES-1 | 0.687 | 0.725 | 0.618 | 0.381 | 0.857 | 1.08 | 1 | 0.9 | 0.44 | 0.614 | 1.22 | 1.33 | 1.19 | 0.866 |  |  |  |  |  | 1.06
EBC-1 |  |  |  |  |  |  |  |  |  |  | 0.437 | 0.375 | 0.296 | 0.268 | 0.551 | 0.472 | 0.434 | 0.297 | 0.329 | 0.402
LCLC-103H | 0.337 | 0.34 | 0.354 | 0.287 | 0.426 | 0.452 | 0.401 | 0.432 | 0.398 | 0.349 |  |  |  |  | 1.07 | 1.23 | 1.03 | 1.05 | 1.01 | 
NCI-H2170 | 0.419 | 0.426 | 0.333 | 0.274 | 0.258 | 0.28 | 0.264 | 0.269 | 0.286 | 0.452 | 0.62 | 0.682 | 0.675 | 0.666 |  |  |  |  |  | 0.64
LK-2 | 0.464 | 0.639 | 0.437 | 0.0912 | 0.322 | 0.289 | 0.282 | 0.212 | 0.173 |  | 0.74 | 0.915 | 0.772 | 0.699 |  |  |  |  |  | 0.883
NCI-H1299 |  |  |  |  |  |  |  |  |  |  | 1.1 | 1.06 | 1 | 0.804 | 1.07 | 1.09 | 1.02 | 0.996 | 0.781 | 1.06
ABC-1 | 0.239 | 0.215 | 0.209 | 0.171 |  |  |  |  |  | 0.234 |  |  |  |  | 0.246 | 0.254 | 0.302 | 0.252 | 0.22 | 
NCI-H358 | 0.311 | 0.343 | 0.215 | 0.111 | 0.165 | 0.176 | 0.175 | 0.164 | 0.183 | 0.297 |  |  |  |  |  |  |  |  |  | 
NCI-H650 | 0.455 | 0.451 | 0.47 | 0.31 | 0.944 | 0.921 | 1.04 | 0.852 | 0.717 |  |  |  |  |  | 0.778 | 0.855 | 0.854 | 0.858 | 0.27 | 
NCI-H661 | 0.274 | 0.297 | 0.274 | 0.243 | 0.944 | 0.946 | 0.93 | 1.01 | 0.782 | 0.267 |  |  |  |  | 0.732 | 0.927 |  | 0.802 | 0.728 | 
NCI-H1623 | 0.586 | 0.607 | 0.45 | 0.53 |  |  |  |  |  | 0.5 |  |  |  |  |  |  |  |  |  | 
Calu-6 |  |  |  |  |  |  |  |  |  |  | 0.93 | 0.953 | 1.02 | 0.668 | 1.16 | 0.973 | 1.04 | 1.05 | 0.78 | 0.911
NCI-H1563 | 0.624 | 0.602 | 0.69 | 0.55 | 0.718 | 0.809 | 0.67 | 0.778 | 0.631 | 0.613 |  |  |  |  | 0.848 | 0.855 |  | 0.839 | 0.645 | 
A549 | 0.154 | 0.172 | 0.148 | 0.0933 |  |  |  |  |  |  | 1.33 | 1.24 | 1.19 | 0.933 |  |  |  |  |  | 1.28
NCI-H1793 | 0.375 | 0.418 | 0.367 | 0.297 |  | 0.824 | 0.839 | 1.18 | 0.645 | 0.47 | 0.334 | 0.348 | 1.27 | 0.351 |  |  |  |  |  | 0.962
